Test results published in ChEMBL document CHEMBL1641538, “Synthesis of a novel human PPARδ selective agonist and its stimulatory effect on oligodendrocyte differentiation” (Bioorg Med Chem Lett, 2011).
Active and inactive are the calls of the source. The rule behind the calls is not given here.

Assays:
[1] = target: T1, Peroxisome proliferator-activated receptor delta (Homo sapiens, UniProt Q03181); experiment: Transactivation of Gal4-fused human PPARdelta DNA binding domain expressed in african green monkey CV1 cells by luciferase reporter gene assay; format: cell-based, CV-1
T1 sequence (Q03181 whole entry): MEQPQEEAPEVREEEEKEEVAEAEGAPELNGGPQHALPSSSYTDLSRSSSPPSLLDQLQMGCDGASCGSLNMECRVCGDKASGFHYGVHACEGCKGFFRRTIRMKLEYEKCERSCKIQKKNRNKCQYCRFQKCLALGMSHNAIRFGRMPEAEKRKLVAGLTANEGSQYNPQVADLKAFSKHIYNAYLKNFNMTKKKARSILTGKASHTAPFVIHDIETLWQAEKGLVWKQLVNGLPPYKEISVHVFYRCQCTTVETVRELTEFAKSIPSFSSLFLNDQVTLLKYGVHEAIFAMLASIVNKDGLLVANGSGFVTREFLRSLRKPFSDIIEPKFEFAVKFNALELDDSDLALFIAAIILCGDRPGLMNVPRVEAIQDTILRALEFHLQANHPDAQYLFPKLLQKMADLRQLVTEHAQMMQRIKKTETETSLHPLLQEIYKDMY

[2] = target: T2, Peroxisome proliferator-activated receptor gamma (Homo sapiens, UniProt P37231); format: cell-based, CV-1
T2 sequence (P37231 whole entry): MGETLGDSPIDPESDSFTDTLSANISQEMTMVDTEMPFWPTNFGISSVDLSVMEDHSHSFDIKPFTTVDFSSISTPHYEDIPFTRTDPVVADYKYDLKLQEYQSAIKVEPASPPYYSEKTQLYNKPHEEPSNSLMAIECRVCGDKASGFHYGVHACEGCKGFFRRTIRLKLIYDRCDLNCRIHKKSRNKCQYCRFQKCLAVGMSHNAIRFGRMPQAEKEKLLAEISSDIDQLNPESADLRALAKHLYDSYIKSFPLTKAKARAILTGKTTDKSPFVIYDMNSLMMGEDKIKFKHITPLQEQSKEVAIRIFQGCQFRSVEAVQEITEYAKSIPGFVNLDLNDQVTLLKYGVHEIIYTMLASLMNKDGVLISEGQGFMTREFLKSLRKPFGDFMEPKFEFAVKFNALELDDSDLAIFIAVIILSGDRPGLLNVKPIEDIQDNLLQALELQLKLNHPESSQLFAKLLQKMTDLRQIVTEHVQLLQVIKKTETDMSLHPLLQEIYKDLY

Homo sapiens = species: Homo sapiens; experiment: Selectivity ratio of EC50 for full length human PPARalpha to EC50 for full length human PPARdelta
[3] = target: PPAR delta/gamma (Homo sapiens) (UniProt P37231+Q03181); experiment: Selectivity ratio of EC50 for full length human PPARgamma to EC50 for full length human PPARdelta
[4] = target: T3, Peroxisome proliferator-activated receptor alpha (Homo sapiens, UniProt Q07869); experiment: Transactivation of full length human PPARalpha expressed in african green monkey CV1 cells by luciferase reporter gene assay; format: cell-based, CV-1
T3 sequence (Q07869 whole entry): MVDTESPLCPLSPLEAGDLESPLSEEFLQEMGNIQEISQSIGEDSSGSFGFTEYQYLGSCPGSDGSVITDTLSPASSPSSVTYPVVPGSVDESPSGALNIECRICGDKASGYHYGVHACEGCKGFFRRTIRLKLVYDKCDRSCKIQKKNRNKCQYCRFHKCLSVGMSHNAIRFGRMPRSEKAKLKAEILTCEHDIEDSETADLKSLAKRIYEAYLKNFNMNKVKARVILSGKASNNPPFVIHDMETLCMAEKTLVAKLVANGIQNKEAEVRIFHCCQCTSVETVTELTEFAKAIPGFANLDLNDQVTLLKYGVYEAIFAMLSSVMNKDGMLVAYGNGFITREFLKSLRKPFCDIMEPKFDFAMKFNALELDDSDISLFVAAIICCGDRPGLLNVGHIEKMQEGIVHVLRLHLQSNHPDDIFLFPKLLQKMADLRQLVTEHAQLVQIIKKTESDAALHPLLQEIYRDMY

[5] = target: T2, Peroxisome proliferator-activated receptor gamma; experiment: Transactivation of full length human PPARgamma expressed in african green monkey CV1 cells by luciferase reporter gene assay; format: cell-based, CV-1
Rattus norvegicus = species: Rattus norvegicus; experiment: Induction of Wistar rat oligodendrocyte differentiation at 0.1 uM after 3 days by O1 antibody staining; format: functional
[6] = target: T3, Peroxisome proliferator-activated receptor alpha; experiment: Transactivation of Gal4-fused human PPARalpha DNA binding domain expressed in african green monkey CV1 cells by luciferase reporter gene assay; format: cell-based, CV-1
[7] = target: T1, Peroxisome proliferator-activated receptor delta; experiment: Transactivation of full length human PPARdelta expressed in african green monkey CV1 cells by luciferase reporter gene assay; format: cell-based, CV-1

SMILES	EC50 [1]	EC50 [2]	Ratio EC50 (Homo sapiens)	Ratio EC50 [3]	EC50 [4]	EC50 [5]	Activity (Rattus norvegicus)	EC50 [6]	EC50 [7]
Cc1nc(-c2ccc(C(F)(F)F)cc2)sc1C(=O)NCc1ccc(OC(C)(C)C(=O)O)cc1 [GW590735]	2.6 µM	> 10 µM	–	–	–	–	–	–	–
Cc1cc2c(CCc3nc(-c4ccc(Cl)cc4Cl)oc3C(C)C)noc2cc1OCC(=O)O	–	> 10 µM	2000	2000	> 10 µM	> 10 µM	Active	> 10 µM	0.0045 µM
